Measurements: PubChem BioAssay AID330 (DTP/NCI, 2004)
“And” between values parts separate entries of the source, which are not always exact repeats. Equal entries are not always repeated. Toxic doses and inconclusive results are not listed.

Tested on: P388 leukemia ip, CD2F1 mice, survival T/C
Test: NCI In Vivo Anticancer Drug Screen. Data for tumor model P388 Leukemia (intraperitoneal) in CD2F1 (CDF1) mice
Conditions: endpoint: median survival time, higher = longer survival
In short: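 Mice carrying the transplanted tumor received test compound or vehicle. Survival was recorded in each group, and the value is the treated-group measurement divided by that of the vehicle-treated control group.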

[1] = dose: 50.0 mg/kg/injection, schedule: Q01DX009 (ip), vehicle: saline with Tween-80
[2] = dose: 100.0 mg/kg/injection, schedule: Q01DX009 (ip), vehicle: saline with Tween-80
[3] = dose: 200.0 mg/kg/injection, schedule: Q01DX009 (ip), vehicle: saline with Tween-80
[4] = dose: 50.0 mg/kg/injection, schedule: Q01DX009 (ip), vehicle: Klucel (hydroxypropylcellulose) (HPC)
[5] = dose: 100.0 mg/kg/injection, schedule: Q01DX009 (ip), vehicle: Klucel (hydroxypropylcellulose) (HPC)
[6] = dose: 200.0 mg/kg/injection, schedule: Q01DX009 (ip), vehicle: Klucel (hydroxypropylcellulose) (HPC)
[7] = dose: 100.0 mg/kg/injection, schedule: Q01DX001 (ip), vehicle: saline with Tween-80
[8] = dose: 6.25 mg/kg/injection, schedule: Q01DX009 (ip), vehicle: saline with Tween-80
[9] = dose: 12.5 mg/kg/injection, schedule: Q01DX009 (ip), vehicle: saline with Tween-80

O=[n+]1c2c(n([O-])c3cc(Cl)c(Cl)cc31)CCCCC2
T/C [1]: 91 % of control
T/C [2]: 99 % of control
T/C [3]: 99 % of control

COc1cc2cc(c1Cl)N(C)C(=O)CC(OC(=O)C(C)C)C1(C)OC1C(C)C1CC(O)(NC(=O)O1)C(OC)/C=C/C=C(C)C2 (centres undefined)
T/C (dose: 3.1 micrograms/kg/injection, schedule: Q01DX009 (ip), vehicle: saline + alcohol): 114 % of control
T/C (dose: 6.2 micrograms/kg/injection, schedule: Q01DX009 (ip), vehicle: saline + alcohol): 119 % of control
T/C (dose: 6.25 micrograms/kg/injection, schedule: Q01DX009 (ip), vehicle: saline + alcohol): 115 % of control
T/C (dose: 100.0 micrograms/kg/injection, schedule: Q01DX009 (ip), vehicle: saline + alcohol): 106 % of control and 86 % of control
T/C (dose: 200.0 micrograms/kg/injection, schedule: Q01DX009 (ip), vehicle: saline + alcohol): 94 % of control

O=C1/C(=C\c2ccccc2)C/C1=C\c1ccccc1
T/C (dose: 100.0 mg/kg/injection, schedule: Q04DX003 (ip), vehicle: Klucel (hydroxypropylcellulose) (HPC)): 97 % of control
T/C (dose: 200.0 mg/kg/injection, schedule: Q04DX003 (ip), vehicle: Klucel (hydroxypropylcellulose) (HPC)): 100 % of control
T/C (dose: 400.0 mg/kg/injection, schedule: Q04DX003 (ip), vehicle: Klucel (hydroxypropylcellulose) (HPC)): 95 % of control

CCCCCCCC/C=C/CCCCCCCC(=O)OCC(=O)OCC
T/C [4]: 102 % of control
T/C [5]: 93 % of control
T/C [6]: 104 % of control

COC1/C=C/OC2(C)Oc3c(C)c(O)c4c(c3C2=O)C(=O)C=C(NC(=O)/C(C)=C\C=C\C(C)C2OC(C)(C)OC(C(C)C(=O)C1C)C2C)C4=O (centres undefined)
T/C [7]: 103 % of control
T/C (dose: 200.0 mg/kg/injection, schedule: Q01DX001 (ip), vehicle: saline with Tween-80): 95 % of control
T/C (dose: 400.0 mg/kg/injection, schedule: Q01DX001 (ip), vehicle: saline with Tween-80): 100 % of control

C1CCN(P(N2CCCCC2)N2CCCCC2)CC1
T/C (dose: 25.0 mg/kg/injection, schedule: Q04DX003 (ip), vehicle: saline with Tween-80): 100 % of control
T/C (dose: 50.0 mg/kg/injection, schedule: Q04DX003 (ip), vehicle: saline with Tween-80): 100 % of control
T/C (dose: 100.0 mg/kg/injection, schedule: Q04DX003 (ip), vehicle: saline with Tween-80): 102 % of control and 104 % of control

O=C1CCCN1C(=O)c1ccccc1
T/C (dose: 18.8 mg/kg/injection, schedule: Q01DX001 (ip), vehicle: saline sonified): 105 % of control
T/C (dose: 37.5 mg/kg/injection, schedule: Q01DX001 (ip), vehicle: saline sonified): 120 % of control
T/C (dose: 75.0 mg/kg/injection, schedule: Q01DX001 (ip), vehicle: saline sonified): 105 % of control

CN(C(=S)SSC(=S)N(C)c1ccccc1)c1ccccc1
T/C (dose: 25.0 mg/kg/injection, schedule: Q01DX009 (ip), vehicle: Klucel (hydroxypropylcellulose) (HPC)): 91 % of control
T/C [4]: 93 % of control
T/C [5]: 97 % of control
T/C [6]: 101 % of control

COC(C(=O)C(OC(C)=O)C(C)OC(C)=O)C1Cc2cc3cc(OC4CC(OC5CC(OC(C)=O)C(OC(C)=O)C(C)O5)C(OC(C)=O)C(C)O4)c(C)c(OC(C)=O)c3c(OC(C)=O)c2C(=O)C1OC1CC(OC2CC(OC(C)=O)C(OC3CC(C)(OC(C)=O)C(OC(C)=O)C(C)O3)C(C)O2)C(OC(C)=O)C(C)O1 (centres undefined)
T/C (dose: 0.13 mg/kg/injection, schedule: Q01DX009 (ip), vehicle: water): 98 % of control
T/C (dose: 0.25 mg/kg/injection, schedule: Q01DX009 (ip), vehicle: water): 99 % of control
T/C (dose: 0.5 mg/kg/injection, schedule: Q01DX009 (ip), vehicle: water): 105 % of control
T/C (dose: 1.0 mg/kg/injection, schedule: Q01DX009 (ip), vehicle: water): 105 % of control
T/C (dose: 2.0 mg/kg/injection, schedule: Q01DX009 (ip), vehicle: water): 107 % of control
T/C (dose: 4.0 mg/kg/injection, schedule: Q01DX009 (ip), vehicle: water): 111 % of control
T/C (dose: 8.0 mg/kg/injection, schedule: Q01DX009 (ip), vehicle: water): 114 % of control
T/C (dose: 11.5 mg/kg/injection, schedule: Q01DX009 (ip), vehicle: water): 106 % of control
T/C (dose: 23.0 mg/kg/injection, schedule: Q01DX009 (ip), vehicle: water): 108 % of control
T/C (dose: 46.0 mg/kg/injection, schedule: Q01DX009 (ip), vehicle: water): 115 % of control

COC1C(O)C(C)OC(OC2C(Oc3cccc4c(O)c5c(=O)oc6ccc(C)c7c(=O)oc(c34)c5c67)OC(C)C(O)C2O)C1O (centres undefined)
T/C (dose: 0.5 mg/kg/injection, schedule: Q01DX009 (ip), vehicle: saline with Tween-80): 108 % of control
T/C (dose: 4.0 mg/kg/injection, schedule: Q01DX009 (ip), vehicle: saline with Tween-80): 157 % of control
T/C [8]: 152 % of control
T/C (dose: 12.5 mg/kg/injection, schedule: Q01DX001 (sc), vehicle: Klucel (hydroxypropylcellulose) (HPC)): 100 % of control
T/C (dose: 12.5 mg/kg/injection, schedule: Q01DX001 (sc), vehicle: other): 97 % of control
T/C (dose: 12.5 mg/kg/injection, schedule: Q01DX005 (sc), vehicle: Klucel (hydroxypropylcellulose) (HPC)): 98 % of control
T/C (dose: 12.5 mg/kg/injection, schedule: Q01DX005 (sc), vehicle: other): 101 % of control
T/C [9]: 164 % of control
T/C (dose: 25.0 mg/kg/injection, schedule: Q01DX001 (sc), vehicle: Klucel (hydroxypropylcellulose) (HPC)): 102 % of control
T/C (dose: 25.0 mg/kg/injection, schedule: Q01DX001 (sc), vehicle: other): 100 % of control
T/C (dose: 25.0 mg/kg/injection, schedule: Q01DX005 (sc), vehicle: Klucel (hydroxypropylcellulose) (HPC)): 97 % of control
T/C (dose: 25.0 mg/kg/injection, schedule: Q01DX005 (sc), vehicle: other): 92 % of control
T/C (dose: 25.0 mg/kg/injection, schedule: Q01DX009 (ip), vehicle: saline with Tween-80): 174 % of control
T/C (dose: 50.0 mg/kg/injection, schedule: Q01DX001 (sc), vehicle: Klucel (hydroxypropylcellulose) (HPC)): 98 % of control
T/C (dose: 50.0 mg/kg/injection, schedule: Q01DX001 (sc), vehicle: other): 109 % of control
T/C (dose: 50.0 mg/kg/injection, schedule: Q01DX005 (sc), vehicle: Klucel (hydroxypropylcellulose) (HPC)): 100 % of control
T/C (dose: 50.0 mg/kg/injection, schedule: Q01DX005 (sc), vehicle: other): 98 % of control
T/C [1]: 183 % of control
T/C [2]: 171 % of control

CCCCOCN(COCCCC)C12CC3CC(CC(C3)C1)C2
T/C [1]: 113 % of control

CCn1cc(C(=O)O)c(=O)c2cc(F)c(-n3cccc3)cc21
T/C (dose: 60.0 mg/kg/injection, schedule: Q01DX005 (ip), vehicle: saline with Tween-80): 101 % of control
T/C (dose: 120.0 mg/kg/injection, schedule: Q01DX005 (ip), vehicle: saline with Tween-80): 99 % of control
T/C (dose: 240.0 mg/kg/injection, schedule: Q01DX005 (ip), vehicle: saline with Tween-80): 98 % of control

F[C](F)(F)[Hg][Br]
T/C (dose: 6.25 mg/kg/injection, schedule: Q04DX002 (ip), vehicle: saline): 100 % of control
T/C (dose: 12.5 mg/kg/injection, schedule: Q04DX002 (ip), vehicle: saline): 92 % of control
T/C (dose: 25.0 mg/kg/injection, schedule: Q04DX002 (ip), vehicle: saline): 106 % of control

COc1ccc2cc1Oc1ccc(cc1)CC1c3cc(c(OC)cc3CCN1C)Oc1c(OC)c(OC)c(O)c3c1C(C2)N(C)CC3 (centres undefined)
T/C (dose: 25.0 mg/kg/injection, schedule: Q01DX001 (ip), vehicle: saline with Tween-80): 99 % of control
T/C (dose: 50.0 mg/kg/injection, schedule: Q01DX001 (ip), vehicle: saline with Tween-80): 105 % of control
T/C [7]: 108 % of control and 111 % of control

C/C1=C(O[Si](C)(C)C)/C(O[Si](C)(C)C)=C(/C)CCCC1
T/C [1]: 100 % of control
T/C [2]: 94 % of control
T/C [3]: 97 % of control

CC1(C)C2CCC1(C)C(N1C(=O)N=NC1=O)C2 (centres undefined)
T/C (dose: 12.5 mg/kg/injection, schedule: Q01DX005 (ip), vehicle: saline with Tween-80): 100 % of control
T/C (dose: 25.0 mg/kg/injection, schedule: Q01DX005 (ip), vehicle: saline with Tween-80): 103 % of control
T/C (dose: 50.0 mg/kg/injection, schedule: Q01DX005 (ip), vehicle: saline with Tween-80): 103 % of control and 91 % of control
T/C (dose: 200.0 mg/kg/injection, schedule: Q01DX005 (ip), vehicle: saline with Tween-80): 104 % of control

CN=C(NC)c1ccc(NC(=O)/C=C\c2ccc(C(=O)Nc3ccc(C(=NC)NC)cc3)cc2)cc1
T/C (dose: 3.13 mg/kg/injection, schedule: Q01DX009 (ip), vehicle: saline with Tween-80): 172 % of control
T/C (dose: 4.4 mg/kg/injection, schedule: Q04DX003 (ip), vehicle: saline with Tween-80): 150 % of control
T/C [8]: 113 % of control
T/C (dose: 10.0 mg/kg/injection, schedule: Q04DX003 (ip), vehicle: saline with Tween-80): 155 % of control
T/C [9]: 95 % of control
T/C (dose: 15.0 mg/kg/injection, schedule: Q04DX003 (ip), vehicle: saline with Tween-80): 155 % of control
